In ChEMBL document CHEMBL1157703, “Synthesis, pharmacological studies and molecular modeling of some tetracyclic 1,3-diazepinium chlorides” (Bioorg Med Chem, 2010):
Active and inactive are the calls of the source. No cut-off for these calls is given here.

Tests used:
[1] = system: Mus musculus; assay: CNS toxicity in Albino mouse assessed as anesthetic response at 0.2 ml/10 g by hippocratic screen; format: organism-based; settings: in vivo
[2] = species: Mus musculus; assay: Effect on behavioral activity in Albino mouse assessed as inhibition of diazepam-induced paralysis at 0.2 ml/10 g by hippocratic screen; format: functional, organism-based
[3] = species: Mus musculus; assay: CNS toxicity in Albino mouse assessed as change in respiratory rate at 0.2 ml/10 g by hippocratic screen; format: organism-based; settings: in vivo
[4] = species: Mus musculus; assay: CNS toxicity in Albino mouse assessed as startle reaction at 0.2 ml/10 g by hippocratic screen; format: organism-based; settings: in vivo
[5] = species: Mus musculus; assay: Effect on behavioral activity in Albino mouse assessed as inhibition of diazepam-induced loss of righting reflex at 0.2 ml/10 g after 2 hrs by hippocratic screen; format: functional, organism-based
[6] = target: T1, Gamma-aminobutyric acid receptor subunit alpha-5 (Homo sapiens, UniProt P18507+P31644+P47870); assay: Displacement of [3H]flunitrezepam from GABAA alpha-5-beta-2-gamma-2 receptor by liquid scintillation counting
T1 sequence (P31644 whole entry): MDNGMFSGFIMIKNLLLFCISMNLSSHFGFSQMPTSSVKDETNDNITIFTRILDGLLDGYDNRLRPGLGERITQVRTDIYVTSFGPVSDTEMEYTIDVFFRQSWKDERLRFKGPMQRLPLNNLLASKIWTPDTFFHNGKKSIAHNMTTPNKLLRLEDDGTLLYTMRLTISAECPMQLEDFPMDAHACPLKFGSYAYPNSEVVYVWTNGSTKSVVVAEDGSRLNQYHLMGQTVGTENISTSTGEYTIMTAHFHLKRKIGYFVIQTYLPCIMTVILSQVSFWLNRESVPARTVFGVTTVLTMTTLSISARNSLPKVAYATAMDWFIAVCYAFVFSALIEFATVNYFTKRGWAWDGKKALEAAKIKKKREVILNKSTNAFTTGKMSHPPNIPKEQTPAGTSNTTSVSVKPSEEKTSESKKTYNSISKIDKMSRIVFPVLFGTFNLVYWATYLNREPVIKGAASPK

[7] = species: Mus musculus; assay: CNS toxicity in Albino mouse assessed as loss of righting reflex at 0.2 ml/10 g by hippocratic screen; format: organism-based; settings: in vivo
[8] = species: Mus musculus; assay: Effect on behavioral activity in Albino mouse assessed as inhibition of diazepam-induced tremors at 0.2 ml/10 g by hippocratic screen; format: functional, organism-based
[9] = target: T2, GABA-A receptor; alpha-1/beta-2/gamma-2 (Homo sapiens, UniProt P14867+P18507+P47870); assay: Displacement of [3H]flunitrezepam from GABA-A alpha-1-beta-2-gamma-2 receptor by liquid scintillation counting; format: protein-complex assay
T2 sequence (P14867 whole entry): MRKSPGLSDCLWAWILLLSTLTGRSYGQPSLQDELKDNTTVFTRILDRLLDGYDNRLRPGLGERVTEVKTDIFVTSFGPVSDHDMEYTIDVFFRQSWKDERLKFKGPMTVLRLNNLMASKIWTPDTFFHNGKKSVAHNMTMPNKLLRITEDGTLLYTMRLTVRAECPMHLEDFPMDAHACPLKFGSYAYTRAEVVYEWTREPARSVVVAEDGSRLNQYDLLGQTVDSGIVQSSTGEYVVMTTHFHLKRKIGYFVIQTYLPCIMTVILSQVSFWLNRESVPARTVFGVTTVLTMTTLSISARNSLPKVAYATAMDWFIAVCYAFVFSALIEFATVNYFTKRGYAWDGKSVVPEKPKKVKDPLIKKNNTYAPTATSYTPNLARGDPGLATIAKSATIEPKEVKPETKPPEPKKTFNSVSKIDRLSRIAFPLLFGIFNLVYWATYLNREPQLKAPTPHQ
T2 sequence (P47870 whole entry): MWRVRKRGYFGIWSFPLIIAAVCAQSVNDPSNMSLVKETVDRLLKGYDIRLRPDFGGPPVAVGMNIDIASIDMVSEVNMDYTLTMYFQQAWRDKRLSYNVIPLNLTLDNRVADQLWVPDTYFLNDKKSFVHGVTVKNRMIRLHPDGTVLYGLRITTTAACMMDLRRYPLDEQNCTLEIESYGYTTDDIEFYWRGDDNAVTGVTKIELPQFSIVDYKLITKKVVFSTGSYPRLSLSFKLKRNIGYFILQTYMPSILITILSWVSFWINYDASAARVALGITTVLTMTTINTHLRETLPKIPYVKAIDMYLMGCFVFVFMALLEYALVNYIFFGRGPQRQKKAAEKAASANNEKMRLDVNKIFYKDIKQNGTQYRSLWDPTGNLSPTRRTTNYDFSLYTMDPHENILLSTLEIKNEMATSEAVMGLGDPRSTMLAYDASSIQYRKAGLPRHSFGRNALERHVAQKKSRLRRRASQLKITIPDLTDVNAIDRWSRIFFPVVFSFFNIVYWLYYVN
T2 sequence (P18507 whole entry): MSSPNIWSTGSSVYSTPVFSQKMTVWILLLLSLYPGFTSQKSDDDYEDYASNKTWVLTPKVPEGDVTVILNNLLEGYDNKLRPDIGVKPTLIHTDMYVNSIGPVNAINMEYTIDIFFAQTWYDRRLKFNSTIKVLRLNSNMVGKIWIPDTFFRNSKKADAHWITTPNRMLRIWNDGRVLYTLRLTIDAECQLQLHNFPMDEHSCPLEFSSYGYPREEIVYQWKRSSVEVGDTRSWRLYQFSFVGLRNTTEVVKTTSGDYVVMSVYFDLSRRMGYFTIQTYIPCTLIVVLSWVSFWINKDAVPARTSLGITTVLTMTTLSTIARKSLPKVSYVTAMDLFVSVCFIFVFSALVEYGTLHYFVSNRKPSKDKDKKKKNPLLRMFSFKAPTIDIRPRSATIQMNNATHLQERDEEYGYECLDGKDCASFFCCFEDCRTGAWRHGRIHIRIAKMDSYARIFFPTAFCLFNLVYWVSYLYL

[10] = species: Mus musculus; assay: Effect on behavioral activity in Albino mouse assessed as inhibition of diazepam-induced loss of analgesia at 0.2 ml/10 g by hippocratic screen; format: functional, organism-based
[11] = species: Mus musculus; assay: CNS toxicity in Albino mouse assessed as pinnal reflex at 0.2 ml/10 g by hippocratic screen; format: organism-based; settings: in vivo
[12] = species: Mus musculus; assay: CNS toxicity in Albino mouse assessed as loss of analgesic activity at 0.2 ml/10 g by hippocratic screen; format: organism-based; settings: in vivo
[13] = species: Mus musculus; assay: CNS toxicity in Albino mouse assessed as ataxia at 0.2 ml/10 g by hippocratic screen; format: organism-based; settings: in vivo
[14] = species: Mus musculus; assay: Effect on behavioral activity in Albino mouse assessed as inhibition of diazepam-induced decrease in respiratory rate at 0.2 ml/10 g by hippocratic screen; format: functional, organism-based
[15] = species: Mus musculus; assay: CNS toxicity in Albino mouse assessed as tremors at 0.2 ml/10 g by hippocratic screen; format: organism-based; settings: in vivo
[16] = species: Mus musculus; assay: Effect on behavioral activity in Albino mouse assessed as inhibition of diazepam-induced anesthesia at 0.2 ml/10 g by hippocratic screen; format: functional, organism-based
[17] = species: Mus musculus; assay: Effect on behavioral activity in Albino mouse assessed as inhibition of diazepam-induced startle reaction at 0.2 ml/10 g by hippocratic screen; format: functional, organism-based
[18] = species: Mus musculus; assay: Effect on behavioral activity in Albino mouse assessed as inhibition of diazepam-induced ataxia at 0.2 ml/10 g after 5 mins by hippocratic screen; format: functional, organism-based
[19] = species: Mus musculus; assay: Effect on behavioral activity in Albino mouse assessed as inhibition of diazepam-induced loss of screen grip at 0.2 ml/10 g by hippocratic screen; format: functional, organism-based
[20] = target: T3, GABA A receptor alpha-3/beta-2/gamma-2 (Homo sapiens, UniProt P18507+P34903+P47870); assay: Displacement of [3H]flunitrezepam from GABAA alpha-3-beta-2-gamma-2 receptor by liquid scintillation counting; format: protein-complex assay
T3 sequence (P47870 whole entry): T2 sequence (P47870 whole entry)
T3 sequence (P18507 whole entry): T2 sequence (P18507 whole entry)
T3 sequence (P34903 whole entry): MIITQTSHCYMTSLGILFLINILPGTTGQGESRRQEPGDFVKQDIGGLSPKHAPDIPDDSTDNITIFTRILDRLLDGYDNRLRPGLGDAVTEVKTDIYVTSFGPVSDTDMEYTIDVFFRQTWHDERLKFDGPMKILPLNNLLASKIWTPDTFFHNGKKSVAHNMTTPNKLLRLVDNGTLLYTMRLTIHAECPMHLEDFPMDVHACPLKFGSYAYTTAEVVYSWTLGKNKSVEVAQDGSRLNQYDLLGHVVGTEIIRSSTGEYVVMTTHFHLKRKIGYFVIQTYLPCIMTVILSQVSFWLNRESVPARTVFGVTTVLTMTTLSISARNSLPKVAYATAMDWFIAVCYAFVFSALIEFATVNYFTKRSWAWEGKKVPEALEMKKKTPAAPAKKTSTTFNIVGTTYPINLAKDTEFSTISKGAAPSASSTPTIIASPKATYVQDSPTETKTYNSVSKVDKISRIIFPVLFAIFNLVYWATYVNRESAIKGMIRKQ

[21] = target: T4, GABA A receptor alpha-2/beta-2/gamma-2 (Homo sapiens, UniProt P18507+P47869+P47870); assay: Displacement of [3H]flunitrezepam from GABA-A alpha-2-beta-2-gamma-2 receptor by liquid scintillation counting; format: protein-complex assay
T4 sequence (P47870 whole entry): T2 sequence (P47870 whole entry)
T4 sequence (P18507 whole entry): T2 sequence (P18507 whole entry)
T4 sequence (P47869 whole entry): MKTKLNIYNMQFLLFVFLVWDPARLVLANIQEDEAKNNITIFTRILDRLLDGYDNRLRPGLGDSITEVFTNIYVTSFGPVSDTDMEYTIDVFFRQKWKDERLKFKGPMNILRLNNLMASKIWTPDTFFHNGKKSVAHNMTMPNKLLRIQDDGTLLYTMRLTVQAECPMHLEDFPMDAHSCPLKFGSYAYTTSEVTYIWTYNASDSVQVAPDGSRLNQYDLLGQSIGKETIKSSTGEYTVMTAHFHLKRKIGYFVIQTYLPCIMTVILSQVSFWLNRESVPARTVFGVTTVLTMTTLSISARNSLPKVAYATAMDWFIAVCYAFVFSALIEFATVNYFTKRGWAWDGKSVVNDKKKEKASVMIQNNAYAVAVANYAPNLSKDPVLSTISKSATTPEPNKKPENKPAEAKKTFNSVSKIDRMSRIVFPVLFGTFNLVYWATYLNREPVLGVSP

[22] = species: Mus musculus; assay: Effect on behavioral activity in Albino mouse assessed as inhibition of diazepam-induced pinnal reflex at 0.2 ml/10 g by hippocratic screen; format: functional, organism-based
[23] = species: Mus musculus; assay: CNS toxicity in Albino mouse assessed as loss of screen grip at 0.2 ml/10 g by hippocratic screen; format: organism-based; settings: in vivo
[24] = species: Mus musculus; assay: CNS toxicity in Albino mouse assessed as paralysis at 0.2 ml/10 g by hippocratic screen; format: organism-based; settings: in vivo
[25] = species: Mus musculus; assay: CNS toxicity in Albino mouse assessed as decrease in motor activity at 0.2 ml/10 g by hippocratic screen; format: organism-based; settings: in vivo
[26] = species: Mus musculus; assay: Effect on behavioral activity in Albino mouse assessed as inhibition of diazepam-induced decrease in motor activity at 0.2 ml/10 g for 10 to 15 mins by hippocratic screen; format: functional, organism-based
[27] = species: Mus musculus; assay: Effect on behavioral activity in Albino mouse assessed as inhibition of diazepam-induced ataxia at 0.2 ml/10 g for 15 mins by hippocratic screen; format: functional, organism-based
[28] = species: Mus musculus; assay: Effect on behavioral activity in Albino mouse assessed as inhibition of diazepam-induced decrease in motor activity at 0.2 ml/10 g for 2 hrs by hippocratic screen; format: functional, organism-based

Compound	Activity [1]	Activity [2]	Activity [3]	Activity [4]	Activity [5]	Activity [7]	Activity [8]	Activity [10]	Activity [11]	Activity [12]	Activity [13]	Activity [14]	Activity [15]	Activity [16]	Activity [17]	Activity [19]	Activity [22]	Activity [23]	Activity [24]	Activity [25]	other results
COc1ccc2c3c(oc2c1)C(=O)Nc1cccc[n+]1C3.[Cl-]	Non-toxic	inactive	Non-toxic	Non-toxic	inactive	Non-toxic	inactive	inactive	Non-toxic	Non-toxic	Non-toxic	inactive	Non-toxic	inactive	inactive	inactive	Active	Non-toxic	Non-toxic	Non-toxic	Ki [6]: 2360 nM; Ki [9]: 746 nM; Activity [18]: inactive; Ki [20]: 1540 nM; Ki [21]: 8080 nM; Activity [26]: Active
COc1ccc2c3c(oc2c1)C(=O)Nc1cccc(C)[n+]1C3.[Cl-]	Non-toxic	inactive	Non-toxic	Non-toxic	inactive	Non-toxic	inactive	inactive	Non-toxic	Non-toxic	Non-toxic	inactive	Non-toxic	inactive	inactive	inactive	inactive	Non-toxic	Non-toxic	Non-toxic	Activity [27]: Active; Activity [28]: Active
